# Experimental data as given in patent US20260258035A1, “FIVE-MEMBERED AND SIX-MEMBERED NITROGEN-CONTAINING COMPOUND, AND INTERMEDIATE, PREPARATION METHOD AND USE THEREOF” (HANGZHOU SYNRX THERAPEUTICS BIOMEDICAL TECHNOLOGY CO., LTD., priority 2022, published 2026).
# Where two headings read alike, the source gives them in different places.
# How the values were obtained:
# [1] = Mouse PK assay; type: in vivo; settings: CD1 mice, oral administration, 30 mg/kg, plasma; for bioavailability / half-life / MRT: mouse; for half-life: read-out: Half-life period (converted); for MRT: read-out: Mean residence time
# Experimental: The goal of this assay was to study the pharmacokinetics of the test compound on CD1 mice (6-8 weeks old, Zhejiang Vegavit Bio-technology Co., Ltd.) after oral administration. The specific experimental procedures were as follows: • 1) the compound was dissolved in 8% DMSO+72% PEG 400+20% ([…]); and • 2) blood samples were collected, with 0.03 mL collected at 0.25 h, 0.5 h, 1 h, 2 h, 4 h, 8 h, and 24 h, and EDTA-K2 was added. CD1 mice: Approximately 0.03 mL of blood was collected at each time point. The blood was centrifuged for 5 min at 4000 g in a centrifuge at 4° C. to collect plasma. Plasma samples were aliquoted into clean polyethylene microcentrifuge tubes and then stored in a freezer at −75±15° C. before analysis; and • 3) samples were analyzed, and the concentration of the compound in each plasma sample was analyzed with LC-MS/MS. For plasma measurements, pharmacokinetic parameters were calculated using WinNonlin (Phoenix™, version 8.3) or other similar software.
# [2] = tested on: Human breast squamous carcinoma cells HCC1806; experiment: Cell function assay (In-Cell Western, PAR/pADPr after MMS); type: cell-based; settings: read-out: IC50 (nM) in cell function assay
# Procedure, shortened: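 HCC1806 cells adhered 24 h at 37 °C, 5% CO2, then were pretreated 1 h with compound (30000 nM down to 1 nM, plus 0 nM) or DMSO. MMS was then added at 0.5 mM final for 1 h before In-Cell Western detection of PAR/pADPr.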
# [3] = Solubility assay (FaSSGF / FaSSIF); type: physicochemical; settings: kinetic from dmso stock, 2 h at 25° C.
# Experimental: 1). Preparation of Solutions:
# The FaSSGF solution was prepared as follows: • a) preparation of FaSSGF buffer: dissolve 2.0 g of NaCl as the raw material in about 0.9 L of purified water; • b) adjustment of the pH of the buffer: adjust the pH of the buffer to 1.6 with 1N HCL, and replenish the buffer with purified water to the volume of 1 L; and • c) preparation of FaSSGF solution by addition of FaSSGF powder: add 0.06 g of the FaSSGF powder to about 0.5 L of the buffer, stir until the powder was completely dissolved, and make up for the volume (1 L) with the buffer.
# The FaSSIF solution was prepared as follows: • a) preparation of FaSSIF buffer: dissolve 0.42 g of NaOH, 3.44 g of anhydrous NaH2PO4, and 6.19 g of NaCl as raw materials in about 0.9 L of purified water; • b) adjustment the pH of the buffer: adjust the pH of the buffer to 6.5 with 1 N NaOH or 1 N HCL, and replenish the buffer with purified water to the volume of 1 L; and • c) preparation of FaSSIF solution by addition of FaSSIF powder: add 2.24 g of the FaSSIF powder to about 0.5 L of the buffer, stir until the powder was completely dissolved, and make up for the volume (1 L) with the buffer.
# 2). Preparation of the Solution of Control Compound:
# The control compound was weighed and dissolved in DMSO to 10 mM to obtain a stock solution.
# 3) Preparation of the Solution of Compound to be Tested:
# The compound to be tested was formulated into a 10 mM DMSO stock solution.
# 4) Preparation of Internal Standard Solution:
# a) The internal standard was weighed and dissolved in DMSO to 10 mM to obtain an internal standard stock solution (ISTD stock solution).
# b) The internal standard stock solution was diluted to 500 nM (Tolbutamide) with an ACN:methano mixture (volume ratio: 1:1) to obtain a quenching solution.
# a) The FaSSGF solution at pH 1.6 and the FaSSIF solution at pH 6.5 were pre-warmed; and then, the compound was injected into the buffer.
# Once done, the samples were centrifuged at 12,000 rpm for 10 min, and the supernatant was transferred to a new tube. The supernatant was diluted 10-fold and 100-fold with the FaSSGF solution at pH 1.6 or the FaSSIIF solution at pH 6.5. 20 μL of each sample (1×, 10×, 100× and standard curve) was added to 500 μL of the IS solution. The resulting mixture was vortexed vigorously for 1 min and centrifuged at 4,500 rpm for 15 min at 4° C. 150 μL of the supernatant was transferred for LC-MS/MS sample analysis.
# [4] = target: PARG (Homo sapiens, UniProt Q86W56); experiment: Biochemical assay (PARG, TFMU-ADPr substrate)
# Chain of PARG (Q86W56 whole entry): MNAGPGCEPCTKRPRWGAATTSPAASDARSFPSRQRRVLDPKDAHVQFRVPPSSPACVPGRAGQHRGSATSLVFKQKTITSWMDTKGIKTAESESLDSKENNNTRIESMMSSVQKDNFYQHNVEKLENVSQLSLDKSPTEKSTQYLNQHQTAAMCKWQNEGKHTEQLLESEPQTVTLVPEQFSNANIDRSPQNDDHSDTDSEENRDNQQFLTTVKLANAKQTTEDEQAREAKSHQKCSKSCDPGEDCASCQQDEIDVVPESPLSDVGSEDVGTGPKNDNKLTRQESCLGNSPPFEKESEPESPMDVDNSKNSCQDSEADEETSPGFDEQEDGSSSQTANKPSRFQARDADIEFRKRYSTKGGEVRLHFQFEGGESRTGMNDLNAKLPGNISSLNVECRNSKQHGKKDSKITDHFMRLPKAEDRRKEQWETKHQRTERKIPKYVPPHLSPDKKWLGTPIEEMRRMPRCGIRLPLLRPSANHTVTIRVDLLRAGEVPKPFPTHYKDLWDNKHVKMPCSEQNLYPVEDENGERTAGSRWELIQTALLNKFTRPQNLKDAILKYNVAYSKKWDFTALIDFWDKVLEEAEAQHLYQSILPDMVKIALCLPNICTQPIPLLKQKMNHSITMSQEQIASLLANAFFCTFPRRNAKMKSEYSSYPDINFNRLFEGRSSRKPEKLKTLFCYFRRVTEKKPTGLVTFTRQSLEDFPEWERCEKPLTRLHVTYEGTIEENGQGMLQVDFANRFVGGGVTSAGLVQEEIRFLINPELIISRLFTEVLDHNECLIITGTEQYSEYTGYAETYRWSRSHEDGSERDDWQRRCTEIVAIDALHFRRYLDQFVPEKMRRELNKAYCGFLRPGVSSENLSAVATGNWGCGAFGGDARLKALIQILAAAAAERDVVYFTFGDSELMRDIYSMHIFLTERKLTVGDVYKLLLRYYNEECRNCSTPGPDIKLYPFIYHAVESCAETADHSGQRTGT
# [5] = HCC1806, In-Cell Western, MMS treatment
# [6] = HCC1806, compound 1 h then 0.5 mM MMS 1 h, PAR/pADPr antibody, In-Cell Western
# [7] = fassgf or other biorelevant, FaSSGF solution pH 1.6, 100 μM from DMSO stock, read-out: FaSSGF solubility
# [8] = FaSSIF solution pH 6.5, 100 μM from DMSO stock, read-out: FaSSIF solubility
# [9] = 4 nM PARG, 66.2 uM TFMU-ADPr, 3 min at room temperature
Area under the curve (0-last; hr*ng/mL) [1] [ng·h/mL],Peak concentration [1] [ng/mL],Time to peak [1] [h],bioavailability [1] [%],half-life [1] [h],MRT [1] [h],"IC50 [2, 5] [nM]","IC50 [2, 6] [nM]","solubility at 2 h [3, 7] [µM]","solubility at 2 h [3, 8] [µM]","IC50 [4, 9] [nM]","IC50 ([4]; PARG, TFMU-ADPr substrate) [nM]",SMILES
29273,4087,1.67,85,2.75,4.81,6.34,< 100,57.5,96.5,< 100,16.6,"CC(C)C(=O)N1CCN(c2cc(S(=O)(=O)NC3(C#N)CC3)cn3c(-c4nnc(C(F)(F)F)s4)ncc23)CC1 [Example 167, N-(1-cyanocyclopropyl)-8-(4-isobutyrylpiperazin-1-yl)-3-(5-(trifluoromethyl)-1,3,4-thiadiazol-2-yl)imidazo[1,5-a]pyridine-6-sulfonamide]"
13174,5317,0.333,47,1.31,1.92,10.8,< 100,0.9,3.18,< 100,0.77,"CC(C)C(=O)N1CCN(c2cc(S(=O)(=O)NC3(C#N)CC3)cn3c(-c4nnc(C(F)F)s4)ncc23)CC1 [Example 32, N-(1-cyanocyclopropyl)-3-(5-(difluoromethyl)-1,3,4-thiadiazol-2-yl)-8-(4-isobutyrylpiperazin-1-yl)imidazo[1,5-a]pyridine-6-sulfonamide]"
